Experimental data reported in article PMC7958298 (Journal of the American Chemical Society, 2020).

Tests used:
pre-miRNA-21 stem = assay: BLI binding to pre-miRNA-21 stem missing the hairpin loop; details: relative to pre-miRNA-21 hairpin, SI Figure 1
[1] = tested on: hairpin derived from HIV RNA; assay: BLI binding to unrelated hairpin derived from HIV RNA; details: SI Figure 1
pre-miRNA-21 = assay: Circular dichroism melting of pre-miRNA-21; format: physicochemical; details: pre-miRNA-21 alone vs with 39, SI Figure 3

Lys-DabG-hAlaA-Arg-Asp-DabA-Leu-hAlaG-Ala-Lys [Compound 39]
reduction of affinity towards the pre-miRNA-21 stem, missing the hairpin loop (pre-miRNA-21 stem): over 50 fold | binding to unrelated hairpin derived from HIV RNA [1]: high affinity | shift in melting temperature of pre-miRNA-21 in the presence of peptide (pre-miRNA-21): no significant shift in melting temperature
